Legend:
[1] = Tissue distribution of 5-halothiophene-2-isopropylamines in Fisher rats (brain uptake and brain:blood); type: in vivo; details: for tissue uptake at 5 min / tissue uptake at 0.5 h / tissue uptake at 1 h: rat, brain, read-out: Mean Brain, % Dose/gm
Excerpt: TISSUE DISTRIBUTION OF 5-HALOTHIOPHENE-
Mean Brain, % Dose/gm (Mean Brain:Blood)

[2] = IMP versus HIPDM, cited from earlier work

Structure (SMILES)	brain uptake and retention (in words) [1]	Mean Brain:Blood ([1]; 5 min)	Mean Brain:Blood ([1]; 30 min)	Mean Brain:Blood ([1]; 60 min)	tissue uptake at 5 min ([1]; 5 min) [%ID/g]	tissue uptake at 0.5 h ([1]; 30 min) [%ID/g]	tissue uptake at 1 h ([1]; 60 min) [%ID/g]	brain-to-blood ratios (in words) [1]	lung clearance relative to HIPDM [2]	amount of activity in the brain relative to HIPDM ([2]; five minutes after administration)
CC(N)Cc1ccc([82Br])s1 (centres unmarked) [Br--82]	good brain uptake and retention	10.4	4.1	2.2	2.7	2.3	1.67			
CC(N)Cc1ccc([125I])s1 (centres unmarked) [I--125]	high brain uptake and good retention	6.0	3.7	2.1	2.77	2.51	1.42	high brain-to-blood ratios		
CC(C)NC(C)Cc1ccc(I)cc1 (centres unmarked) [IMP, N-isopropyl-p-iodoamphetamine]									clears the lungs faster	almost twice the amount of activity in the brain

— patent US4900539A, “Radiohalogenated thienylethylamine derivatives for evaluating local cerebral blood flow” (The United States of America as represented by the United …, priority 1988, dated 1990)
